Values after ≈ are worked out from the molar mass of the structure shown. Values joined by “and” are separate entries in the source; they are usually repeats but may differ in a detail not shown here. Identical values can stand only once.
Key:
Assay in all cases: ≥ marks a high value that may be exact or a test limit, other limits are often not marked, values filed in µg/mL are converted to µM
[1] = tested on: Mycobacterium tuberculosis H37Rv
Candida albicans = tested on: Candida albicans
[2] = tested on: Staphylococcus aureus ATCC 25923
[3] = tested on: Candida albicans ATCC 24433
Staphylococcus aureus MR = tested on: Staphylococcus aureus MR
[4] = tested on: Escherichia coli ATCC 25922
[5] = tested on: Pseudomonas aeruginosa ATCC 27853
[6] = tested on: Cryptococcus neoformans ATCC 208821
[7] = tested on: Klebsiella pneumoniae ATCC 700603
Acinetobacter baumannii = tested on: Acinetobacter baumannii
Pseudomonas aeruginosa = tested on: Pseudomonas aeruginosa
[8] = tested on: Acinetobacter baumannii ATCC 19606
Klebsiella pneumoniae = tested on: Klebsiella pneumoniae
[9] = tested on: Candida albicans ATCC 90028
[10] = tested on: Staphylococcus aureus ATCC 43300
[11] = tested on: Bacillus subtilis ATCC 6051
[12] = tested on: Klebsiella pneumoniae ATCC 13883
[13] = tested on: Klebsiella pneumoniae ATCC BAA-2146
[14] = tested on: Pseudomonas aeruginosa PAO1
Staphylococcus aureus = tested on: Staphylococcus aureus
[15] = tested on: Pseudomonas aeruginosa PA14
Escherichia coli = tested on: Escherichia coli
[16] = tested on: Escherichia coli ATCC 8739
[17] = tested on: Acinetobacter baumannii CCARM 12035
[18] = tested on: Pseudomonas aeruginosa KCTC 2004
[19] = tested on: Escherichia coli KCTC 1682
[20] = tested on: Acinetobacter baumannii KCTC 2508
[21] = tested on: Staphylococcus aureus CCARM 3126
[22] = tested on: Bacillus subtilis KCTC 3068
[23] = tested on: Escherichia coli CCARM 1229
[24] = tested on: Staphylococcus epidermidis KCTC 1917
[25] = tested on: Salmonella typhimurium KCTC 1926
[26] = tested on: Staphylococcus aureus KCTC 1621
[27] = tested on: Salmonella typhimurium CCARM 8007
[28] = tested on: Pseudomonas aeruginosa CCARM 2002

An MIC [1] of at least 68.7 µM was found for `CC[C@H](C)[C@H](NC(=O)[C@H](Cc1c[nH]c2ccccc12)NC(=O)[C@H](CCCN=C(N)N)NC(=O)[C@H](CCCCN)NC(=O)[C@H](C)NC(=O)[C@H](CC(C)C)NC(=O)[C@H](CCCN=C(N)N)NC(=O)[C@H](CC(=O)O)NC(=O)[C@@H](NC(=O)[C@H](CC(N)=O)NC(=O)[C@H](CCC(=O)O)NC(=O)[C@H](CCC(=O)O)NC(=O)[C@H](CO)NC(=O)[C@@H](NC(=O)[C@H](CC(N)=O)NC(=O)[C@H](CCCN=C(N)N)NC(=O)[C@H](C)N)C(C)C)C(C)C)C(=O)N[C@@H](CCCCN)C(=O)O` [ARNVSEENVDRLAKRWIK] in this work.

An MIC (Candida albicans) of 2.41 µM (≈ 12.5 µg/mL), an MIC [2] of 0.385 µM (≈ 2 µg/mL) and an MIC [3] of 2.41 µM (≈ 12.5 µg/mL) were found for `CC[C@H](C)[C@@H]1NC(=O)[C@H](CCC(N)=O)NC(=O)[C@H](CCC(=O)O)NC(=O)[C@H](CCC(=O)O)NC(=O)[C@H](CCCCN)NC(=O)CNC(=O)[C@H](CC(C)C)NC(=O)[C@@H]2CSSC[C@@H](C(=O)N[C@@H](CCCN=C(N)N)C(=O)N[C@@H](CCCCN)C(=O)N[C@@H](CCCCN)C(=O)N[C@@H](CCCCN)C(=O)O)NC(=O)[C@@H]3CSSC[C@H](NC(=O)[C@H](Cc4ccccc4)NC(=O)[C@H](Cc4ccccc4)NC(=O)[C@H](CCCCN)NC(=O)[C@H](CCCN=C(N)N)NC(=O)[C@H](CC(C)C)NC(=O)[C@@H](NC(=O)[C@H](CCCCN)NC(=O)[C@@H]4CCCN4C(=O)[C@H](CC(C)C)NC(=O)[C@@H](N)Cc4ccccc4)[C@@H](C)O)C(=O)N[C@@H](CCCN=C(N)N)C(=O)N[C@@H]([C@@H](C)CC)C(=O)N[C@@H](CCCN=C(N)N)C(=O)NCC(=O)NCC(=O)N[C@@H](CCCN=C(N)N)C(=O)N[C@@H](CSSC[C@H](NC(=O)[C@H](CCCN=C(N)N)NC(=O)CNC1=O)C(=O)N[C@@H](CO)C(=O)N[C@@H](CC(N)=O)C(=O)N[C@@H](CO)C(=O)NCC(=O)N[C@@H](CCCN=C(N)N)C(=O)N[C@@H](CCCCN)C(=O)N3)C(=O)N[C@@H](C)C(=O)N[C@@H](C(C)C)C(=O)N[C@@H](CC(C)C)C(=O)N[C@@H](CC(N)=O)C(=O)N2` [FLPKTLRKFFCRIRGGRCAVLNCLGKEEQIGRCSNSGRKCCRKKK] in this work. It also gave an MIC (Staphylococcus aureus MR) of 4.82 µM (≈ 25 µg/mL).

An MIC [4] of 0.112 µM (≈ 0.25 µg/mL), an MIC [5] of 0.446 µM (≈ 0.998 µg/mL) and an MIC [6] of 0.446 µM (≈ 0.998 µg/mL) were found for `CC[C@H](C)[C@@H]1NC(=O)CNC(=O)[C@H](CCCN=C(N)N)NC(=O)[C@H](Cc2ccc(O)cc2)NC(=O)[C@@H]2CSSC[C@H](NC1=O)C(=O)N[C@@H](Cc1ccc(O)cc1)C(=O)N[C@@H](CCCN=C(N)N)C(=O)N[C@@H](CCCN=C(N)N)C(=O)N[C@H](C(=O)N[C@@H](CCCN=C(N)N)C(=O)O)CSSC[C@H](NC(=O)[C@H](Cc1c[nH]c3ccccc13)NC(=O)[C@@H](N)CCCCN)C(=O)N[C@@H](Cc1ccccc1)C(=O)N[C@@H](CCCN=C(N)N)C(=O)N[C@@H](C)C(=O)N2` [KWCFRACYRGICYRRCR] in this work. For the same molecule, the MIC [7] was 0.446 µM (≈ 0.998 µg/mL), the MIC (Acinetobacter baumannii) was 0.223 µM (≈ 0.499 µg/mL) and the MIC (Pseudomonas aeruginosa) was 0.893 µM (≈ 2 µg/mL). The MIC [8] was 0.112 µM (≈ 0.25 µg/mL), the MIC (Klebsiella pneumoniae) was 7.14 µM (≈ 16 µg/mL) and the MIC [9] was 3.57 µM (≈ 7.99 µg/mL). For the same molecule, the MIC [10] was 1.79 µM (≈ 3.99 µg/mL), the MIC [11] was 0.112 µM (≈ 0.25 µg/mL) and the MIC [12] was 0.112 µM (≈ 0.25 µg/mL). It also gave an MIC [13] of 0.446 µM (≈ 0.998 µg/mL).

An MIC [4] of 0.223 µM (≈ 0.499 µg/mL), an MIC [5] of over 7.14 µM and an MIC [6] of 1.79 µM (≈ 3.99 µg/mL) were found for `CC[C@H](C)[C@@H]1NC(=O)CNC(=O)[C@H](C)NC(=O)[C@H](Cc2ccc(O)cc2)NC(=O)[C@@H]2CSSC[C@H](NC1=O)C(=O)N[C@@H](Cc1ccc(O)cc1)C(=O)N[C@@H](CCCN=C(N)N)C(=O)N[C@@H](CCCN=C(N)N)C(=O)N[C@H](C(=O)N[C@@H](CCCN=C(N)N)C(=O)O)CSSC[C@H](NC(=O)[C@H](Cc1c[nH]c3ccccc13)NC(=O)[C@@H](N)CCCCN)C(=O)N[C@@H](Cc1ccccc1)C(=O)N[C@@H](CCCN=C(N)N)C(=O)N[C@@H](CCCN=C(N)N)C(=O)N2` [KWCFRRCYAGICYRRCR] in this work. For the same molecule, the MIC [7] was 7.14 µM (≈ 16 µg/mL), the MIC (Acinetobacter baumannii) was 7.14 µM (≈ 16 µg/mL) and the MIC (Pseudomonas aeruginosa) was over 7.14 µM. It also gave an MIC [8] of 7.14 µM (≈ 16 µg/mL), an MIC (Klebsiella pneumoniae) of over 7.14 µM and an MIC [9] of 7.14 µM (≈ 16 µg/mL). For the same molecule, the MIC [10] was over 7.14 µM, the MIC [11] was 0.112 µM (≈ 0.25 µg/mL) and the MIC [12] was 7.14 µM (≈ 16 µg/mL). The MIC [13] was 7.14 µM (≈ 16 µg/mL).

An MIC [14] of 8 µM (≈ 18.4 µg/mL), an MIC [4] of 8 µM (≈ 18.4 µg/mL) and an MIC [5] of 16 µM (≈ 36.8 µg/mL) were found for `CC[C@H](C)[C@H](NC(=O)[C@H](CCCCN)NC(=O)[C@H](CC(C)C)NC(=O)[C@H](CCCN=C(N)N)NC(=O)[C@H](CC(C)C)NC(=O)[C@H](CCCCN)NC(=O)[C@H](CCCCN)NC(=O)[C@H](CC(C)C)NC(=O)[C@H](CC(C)C)NC(=O)[C@H](CCCCN)NC(=O)[C@H](CCCCN)NC(=O)[C@H](CC(N)=O)NC(=O)[C@H](CCCN=C(N)N)NC(=O)[C@H](C)NC(=O)[C@H](CCSC)NC(=O)[C@@H]1CCCN1)C(=O)N[C@@H](C)C(=O)N[C@@H](Cc1ccccc1)C(=O)N[C@@H](CCCCN)C(=O)O` [PMARNKKLLKKLRLKIAFK] in this work. The MIC (Staphylococcus aureus) was over 64 µM, the MIC [2] was 64 µM and 55.7 µM and the MIC (Klebsiella pneumoniae) was 16 µM (≈ 36.8 µg/mL). For the same molecule, the MIC [15] was 8 µM (≈ 18.4 µg/mL), the MIC (Escherichia coli) was 8 µM (≈ 18.4 µg/mL) and the MIC [16] was 8 µM and 6.97 µM.

An MIC [17] of 16 µM (≈ 24.5 µg/mL), an MIC [18] of 8 µM (≈ 12.2 µg/mL) and an MIC [19] of 16 µM (≈ 24.5 µg/mL) were found for `CC[C@H](C)[C@H](NC(=O)[C@H](CCCCN)NC(=O)[C@H](CCCCN)NC(=O)[C@H](Cc1ccccc1)NC(=O)[C@@H](NC(=O)[C@H](CCCCN)NC(=O)[C@H](Cc1c[nH]c2ccccc12)NC(=O)[C@@H](N)CCCN=C(N)N)[C@@H](C)CC)C(=O)N[C@@H](CCC(=O)O)C(=O)N[C@@H](CCCCN)C(=O)N[C@H](C(=O)NCC(N)=O)C(C)C` [RWKIFKKIEKVG] in this work. The MIC [20] was at least 64 µM, the MIC [21] was at least 64 µM and the MIC [22] was at least 64 µM. It also gave an MIC [23] of at least 64 µM, an MIC [24] of at least 64 µM and an MIC [25] of at least 64 µM. For the same molecule, the MIC [26] was 16 µM (≈ 24.5 µg/mL), the MIC [27] was at least 32 µM and the MIC [28] was 16 µM (≈ 24.5 µg/mL).

An MIC [17] of 8 µM (≈ 12.2 µg/mL), an MIC [18] of 8 µM (≈ 12.2 µg/mL) and an MIC [19] of 8 µM (≈ 12.2 µg/mL) were found for `CC[C@H](C)[C@H](NC(=O)[C@H](CCCCN)NC(=O)[C@H](Cc1c[nH]c2ccccc12)NC(=O)[C@@H](N)CCCN=C(N)N)C(=O)N[C@@H](Cc1ccccc1)C(=O)N[C@@H](CCCCN)C(=O)N[C@@H](CCCCN)C(=O)N[C@H](C(=O)N[C@H](C(=O)N[C@@H](CCCCN)C(=O)N[C@@H](CCCCN)C(=O)N[C@@H](C)C(N)=O)C(C)C)C(C)C` [RWKIFKKVVKKA] in this work. It also gave an MIC [20] of 8 µM (≈ 12.2 µg/mL), an MIC [21] of 16 µM (≈ 24.5 µg/mL) and an MIC [22] of 16 µM (≈ 24.5 µg/mL). For the same molecule, the MIC [23] was 16 µM (≈ 24.5 µg/mL), the MIC [24] was 16 µM (≈ 24.5 µg/mL) and the MIC [25] was at least 32 µM. For the same molecule, the MIC [26] was 8 µM (≈ 12.2 µg/mL), the MIC [27] was 16 µM (≈ 24.5 µg/mL) and the MIC [28] was 16 µM (≈ 24.5 µg/mL).

— DBAASP
